# Test results from ChEMBL document CHEMBL5291721, “A preclinical secondary pharmacology resource illuminates target-adverse drug reaction associations of marketed drugs” (Nat Commun, 2023).
# Tests used:
# [1] = biological target: T1, Muscarinic acetylcholine receptor M1 (Homo sapiens, UniProt P11229); format: functional, cell-based
# T1 sequence (P11229 whole entry): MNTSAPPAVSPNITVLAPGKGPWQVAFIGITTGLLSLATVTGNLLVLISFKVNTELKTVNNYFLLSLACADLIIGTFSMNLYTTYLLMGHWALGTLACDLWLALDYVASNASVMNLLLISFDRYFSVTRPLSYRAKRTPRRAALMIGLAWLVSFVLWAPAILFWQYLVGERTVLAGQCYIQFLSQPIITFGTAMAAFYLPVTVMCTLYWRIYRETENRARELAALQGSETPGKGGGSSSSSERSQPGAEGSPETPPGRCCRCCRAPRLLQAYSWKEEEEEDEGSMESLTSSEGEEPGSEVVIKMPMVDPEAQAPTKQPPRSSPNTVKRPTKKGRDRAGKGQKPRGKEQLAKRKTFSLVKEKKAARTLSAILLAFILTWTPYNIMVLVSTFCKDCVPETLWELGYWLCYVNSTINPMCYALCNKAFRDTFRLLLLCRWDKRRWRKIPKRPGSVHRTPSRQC
# [2] = biological target: D(3) dopamine receptor (Homo sapiens, UniProt P35462)
# [3] = biological target: T2, Estrogen receptor (Homo sapiens, UniProt P03372)
# T2 sequence (P03372 whole entry): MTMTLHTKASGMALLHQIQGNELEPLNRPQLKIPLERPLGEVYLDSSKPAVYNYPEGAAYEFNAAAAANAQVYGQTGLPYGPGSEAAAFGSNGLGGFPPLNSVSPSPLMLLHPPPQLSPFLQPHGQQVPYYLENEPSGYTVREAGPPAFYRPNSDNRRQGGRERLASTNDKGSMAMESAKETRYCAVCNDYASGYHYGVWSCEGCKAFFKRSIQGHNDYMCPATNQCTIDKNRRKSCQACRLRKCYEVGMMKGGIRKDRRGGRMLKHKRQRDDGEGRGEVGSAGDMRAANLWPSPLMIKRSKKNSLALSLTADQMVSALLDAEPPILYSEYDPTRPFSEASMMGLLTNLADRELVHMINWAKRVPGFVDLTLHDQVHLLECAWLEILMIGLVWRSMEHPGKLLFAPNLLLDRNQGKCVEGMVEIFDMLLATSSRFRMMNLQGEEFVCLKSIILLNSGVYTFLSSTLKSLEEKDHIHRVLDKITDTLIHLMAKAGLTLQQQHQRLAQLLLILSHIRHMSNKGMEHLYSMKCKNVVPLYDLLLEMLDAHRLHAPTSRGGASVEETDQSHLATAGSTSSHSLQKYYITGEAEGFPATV
# [4] = biological target: Gamma-aminobutyric acid receptor subunit alpha-1/alpha-2/beta-2/gamma-2 (Homo sapiens, UniProt P14867+P18507+P47869+P47870); format: protein-complex assay
# [5] = biological target: T3, 5-hydroxytryptamine receptor 1A (Homo sapiens, UniProt P08908)
# T3 sequence (P08908 whole entry): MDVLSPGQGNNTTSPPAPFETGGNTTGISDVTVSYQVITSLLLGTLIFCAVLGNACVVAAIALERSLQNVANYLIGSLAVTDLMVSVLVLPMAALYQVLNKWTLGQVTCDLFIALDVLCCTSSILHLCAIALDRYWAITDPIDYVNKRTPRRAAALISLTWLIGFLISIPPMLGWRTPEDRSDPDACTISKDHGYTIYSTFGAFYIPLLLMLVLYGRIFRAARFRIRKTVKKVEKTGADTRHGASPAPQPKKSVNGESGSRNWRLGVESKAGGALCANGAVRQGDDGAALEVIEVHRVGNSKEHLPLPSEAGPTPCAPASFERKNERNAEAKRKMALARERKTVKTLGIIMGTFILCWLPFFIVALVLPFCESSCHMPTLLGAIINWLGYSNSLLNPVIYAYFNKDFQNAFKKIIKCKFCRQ
# [6] = biological target: 5-hydroxytryptamine receptor 2B (Homo sapiens, UniProt P41595); format: functional, cell-based
# [7] = biological target: Sodium-dependent serotonin transporter (Homo sapiens, UniProt P31645)
# [8] = biological target: Gamma-aminobutyric acid receptor subunit alpha-1 (Rattus norvegicus, UniProt P62813)
# Further: assay procedure not described here.
# Sequence of 5-hydroxytryptamine receptor 2B (P41595 whole entry): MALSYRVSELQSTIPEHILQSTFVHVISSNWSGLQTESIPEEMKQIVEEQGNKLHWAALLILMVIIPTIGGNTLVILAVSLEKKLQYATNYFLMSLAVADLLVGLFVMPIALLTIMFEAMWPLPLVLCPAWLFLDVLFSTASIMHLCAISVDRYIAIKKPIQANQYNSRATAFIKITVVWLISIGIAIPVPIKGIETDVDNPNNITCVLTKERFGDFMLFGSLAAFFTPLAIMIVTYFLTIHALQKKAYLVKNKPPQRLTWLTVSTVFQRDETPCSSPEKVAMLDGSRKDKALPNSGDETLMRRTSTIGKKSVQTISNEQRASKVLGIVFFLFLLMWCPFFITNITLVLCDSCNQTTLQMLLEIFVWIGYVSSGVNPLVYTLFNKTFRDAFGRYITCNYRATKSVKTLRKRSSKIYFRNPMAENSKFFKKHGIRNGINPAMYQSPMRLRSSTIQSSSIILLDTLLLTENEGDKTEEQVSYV
# Sequence of D(3) dopamine receptor (P35462 whole entry): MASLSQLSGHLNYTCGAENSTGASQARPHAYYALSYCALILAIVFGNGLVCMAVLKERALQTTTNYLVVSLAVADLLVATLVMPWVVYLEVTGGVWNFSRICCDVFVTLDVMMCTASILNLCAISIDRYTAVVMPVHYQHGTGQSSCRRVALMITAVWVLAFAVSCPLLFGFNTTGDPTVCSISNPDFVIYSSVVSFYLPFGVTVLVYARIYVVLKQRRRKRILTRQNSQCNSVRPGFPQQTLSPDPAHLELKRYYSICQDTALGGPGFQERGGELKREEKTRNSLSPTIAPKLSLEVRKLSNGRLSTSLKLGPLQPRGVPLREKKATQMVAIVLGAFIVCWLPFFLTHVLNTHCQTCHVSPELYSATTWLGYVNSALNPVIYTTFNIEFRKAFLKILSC
# Sequence of Sodium-dependent serotonin transporter (P31645 whole entry): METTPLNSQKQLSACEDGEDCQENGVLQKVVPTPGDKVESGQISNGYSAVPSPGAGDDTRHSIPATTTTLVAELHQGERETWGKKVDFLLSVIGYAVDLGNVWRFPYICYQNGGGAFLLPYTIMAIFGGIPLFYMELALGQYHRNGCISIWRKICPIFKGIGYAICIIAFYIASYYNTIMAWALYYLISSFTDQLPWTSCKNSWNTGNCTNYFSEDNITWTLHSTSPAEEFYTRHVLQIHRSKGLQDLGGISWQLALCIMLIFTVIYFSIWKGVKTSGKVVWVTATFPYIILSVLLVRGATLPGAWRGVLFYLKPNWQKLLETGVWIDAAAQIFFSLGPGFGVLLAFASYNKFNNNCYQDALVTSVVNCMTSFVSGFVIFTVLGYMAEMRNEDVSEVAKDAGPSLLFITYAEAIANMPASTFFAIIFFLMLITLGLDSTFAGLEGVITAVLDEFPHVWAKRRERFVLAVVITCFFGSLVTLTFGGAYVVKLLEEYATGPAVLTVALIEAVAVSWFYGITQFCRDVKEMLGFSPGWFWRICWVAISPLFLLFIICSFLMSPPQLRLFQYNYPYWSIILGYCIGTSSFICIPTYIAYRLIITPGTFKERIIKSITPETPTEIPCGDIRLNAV
# Sequence of Gamma-aminobutyric acid receptor subunit alpha-1/alpha-2/beta-2/gamma-2 (P14867 whole entry): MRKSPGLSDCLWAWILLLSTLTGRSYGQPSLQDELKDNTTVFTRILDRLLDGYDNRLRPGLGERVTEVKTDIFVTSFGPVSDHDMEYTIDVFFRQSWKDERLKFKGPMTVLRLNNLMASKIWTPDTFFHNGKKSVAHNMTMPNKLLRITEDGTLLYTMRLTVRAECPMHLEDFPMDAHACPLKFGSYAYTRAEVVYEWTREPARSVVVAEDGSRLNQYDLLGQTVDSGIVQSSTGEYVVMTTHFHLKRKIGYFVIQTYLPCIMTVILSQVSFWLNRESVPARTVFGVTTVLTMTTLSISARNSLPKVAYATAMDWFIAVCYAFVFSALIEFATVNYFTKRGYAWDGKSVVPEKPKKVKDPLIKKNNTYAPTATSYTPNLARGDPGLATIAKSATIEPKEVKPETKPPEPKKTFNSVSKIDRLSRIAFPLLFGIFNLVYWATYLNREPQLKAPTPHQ
# Sequence of Gamma-aminobutyric acid receptor subunit alpha-1/alpha-2/beta-2/gamma-2 (P47870 whole entry): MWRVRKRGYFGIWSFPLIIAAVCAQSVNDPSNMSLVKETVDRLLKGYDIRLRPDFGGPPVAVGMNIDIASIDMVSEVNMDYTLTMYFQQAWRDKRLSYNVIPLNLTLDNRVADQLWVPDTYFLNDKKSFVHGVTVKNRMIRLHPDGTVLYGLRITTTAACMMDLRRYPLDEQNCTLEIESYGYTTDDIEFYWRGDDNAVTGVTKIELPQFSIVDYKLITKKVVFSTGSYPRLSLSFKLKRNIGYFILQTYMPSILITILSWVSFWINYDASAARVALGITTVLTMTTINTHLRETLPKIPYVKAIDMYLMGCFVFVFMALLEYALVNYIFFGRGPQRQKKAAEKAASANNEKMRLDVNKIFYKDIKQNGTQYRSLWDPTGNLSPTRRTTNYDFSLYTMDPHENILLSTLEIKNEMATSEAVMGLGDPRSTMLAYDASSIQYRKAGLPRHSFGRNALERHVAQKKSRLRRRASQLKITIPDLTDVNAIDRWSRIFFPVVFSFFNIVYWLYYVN
# Sequence of Gamma-aminobutyric acid receptor subunit alpha-1/alpha-2/beta-2/gamma-2 (P18507 whole entry): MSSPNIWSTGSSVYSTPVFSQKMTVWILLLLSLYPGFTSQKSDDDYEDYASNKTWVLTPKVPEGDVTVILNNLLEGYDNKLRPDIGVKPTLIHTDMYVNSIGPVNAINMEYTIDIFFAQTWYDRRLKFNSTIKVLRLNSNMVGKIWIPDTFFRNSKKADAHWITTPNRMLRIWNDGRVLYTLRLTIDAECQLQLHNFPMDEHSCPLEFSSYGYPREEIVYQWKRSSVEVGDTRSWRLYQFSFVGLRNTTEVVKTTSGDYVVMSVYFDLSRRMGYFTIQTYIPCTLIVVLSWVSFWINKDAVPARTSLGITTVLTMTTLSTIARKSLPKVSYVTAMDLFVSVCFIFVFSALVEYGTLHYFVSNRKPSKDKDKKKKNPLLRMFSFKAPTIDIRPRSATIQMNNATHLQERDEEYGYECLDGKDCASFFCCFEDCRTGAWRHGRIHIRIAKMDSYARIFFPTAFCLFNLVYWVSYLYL
# Sequence of Gamma-aminobutyric acid receptor subunit alpha-1/alpha-2/beta-2/gamma-2 (P47869 whole entry): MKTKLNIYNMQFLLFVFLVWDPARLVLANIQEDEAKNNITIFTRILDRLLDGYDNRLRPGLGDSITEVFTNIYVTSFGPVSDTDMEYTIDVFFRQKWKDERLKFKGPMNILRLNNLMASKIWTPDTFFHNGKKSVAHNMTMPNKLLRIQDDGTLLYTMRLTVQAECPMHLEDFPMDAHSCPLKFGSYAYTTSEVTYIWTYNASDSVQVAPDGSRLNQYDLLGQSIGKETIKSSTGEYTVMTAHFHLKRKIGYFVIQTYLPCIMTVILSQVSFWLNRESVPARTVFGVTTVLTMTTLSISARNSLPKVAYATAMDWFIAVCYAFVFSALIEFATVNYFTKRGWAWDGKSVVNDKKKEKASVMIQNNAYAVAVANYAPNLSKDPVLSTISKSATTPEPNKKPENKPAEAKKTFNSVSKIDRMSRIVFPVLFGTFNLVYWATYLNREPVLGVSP
# Sequence of Gamma-aminobutyric acid receptor subunit alpha-1 (P62813 whole entry): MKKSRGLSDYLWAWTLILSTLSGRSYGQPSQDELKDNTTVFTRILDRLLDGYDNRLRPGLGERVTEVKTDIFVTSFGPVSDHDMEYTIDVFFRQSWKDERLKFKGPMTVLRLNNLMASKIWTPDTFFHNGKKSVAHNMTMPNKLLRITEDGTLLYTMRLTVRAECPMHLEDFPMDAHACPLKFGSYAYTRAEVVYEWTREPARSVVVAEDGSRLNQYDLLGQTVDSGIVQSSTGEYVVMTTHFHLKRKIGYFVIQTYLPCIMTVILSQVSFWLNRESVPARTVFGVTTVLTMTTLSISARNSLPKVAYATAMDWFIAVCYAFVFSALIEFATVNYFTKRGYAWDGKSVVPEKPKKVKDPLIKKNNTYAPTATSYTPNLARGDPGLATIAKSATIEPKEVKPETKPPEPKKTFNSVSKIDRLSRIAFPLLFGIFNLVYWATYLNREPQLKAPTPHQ
SMILES,AC50 [1],AC50 [2],AC50 [3],AC50 [4],AC50 [5],AC50 [6],AC50 [7],AC50 [8]
CC(=O)Oc1c(C)c(C)c2c(c1C)CC[C@@](C)(CCC[C@H](C)CCC[C@H](C)CCCC(C)C)O2,> 30 µM,> 30 µM,> 30 µM,> 30 µM,> 30 µM,> 30 µM,> 30 µM,
CC[C@@H](C(N)=O)N1CCCC1=O,> 30 µM,> 30 µM,> 30 µM,> 30 µM,> 30 µM,> 30 µM,> 30 µM,
CC(=O)c1ccc2c(c1)N(CCCN(C)C)c1ccccc1S2 [ACEPROMAZINE],> 30 µM,0.0087 µM,> 30 µM,> 30 µM,0.248 µM,> 30 µM,0.145 µM,
Nc1ccncc1N [AMIFAMPRIDINE],> 30 µM,> 30 µM,,> 30 µM,> 30 µM,> 30 µM,> 30 µM,> 30 µM
N=c1ccn2c(n1)O[C@H]1[C@H](O)[C@@H](CO)O[C@H]12 [ANCITABINE],> 30 µM,> 30 µM,> 30 µM,> 30 µM,> 30 µM,> 30 µM,> 30 µM,
CCCNC(C)C(=O)Nc1c(C)csc1C(=O)OC (stereo not drawn) [ARTICAINE],> 30 µM,> 30 µM,> 30 µM,> 30 µM,,> 30 µM,> 30 µM,
C=CCN1C[C@H](C(=O)N(CCCN(C)C)C(=O)NCC)C[C@@H]2c3cccc4[nH]cc(c34)C[C@H]21 [CABERGOLINE],> 30 µM,0.003 µM,> 30 µM,> 30 µM,0.0083 µM,0.0032 µM,> 30 µM,
CC(C)(C)C(=O)C(Oc1ccc(Cl)cc1)n1ccnc1 (stereo not drawn) [CLIMBAZOLE],> 30 µM,> 30 µM,> 30 µM,> 30 µM,> 30 µM,> 30 µM,29.7 µM,
NNc1nnc(NN)c2ccccc12 [DIHYDRALAZINE],> 30 µM,> 30 µM,> 30 µM,> 30 µM,> 30 µM,> 30 µM,> 30 µM,
CC(C)C[C@H]1C(=O)N2CCC[C@H]2[C@]2(O)O[C@](NC(=O)[C@@H]3C[C@@H]4c5cccc6[nH]cc(c56)C[C@H]4N(C)C3)(C(C)C)C(=O)N12 [DIHYDROERGOCRYPTINE],> 30 µM,0.202 µM,> 30 µM,> 30 µM,0.0125 µM,> 30 µM,> 30 µM,
CCN(CC)CCOC(=O)C(c1ccccc1)C1CCCCC1 (stereo not drawn) [DROFENINE],> 30 µM,0.217 µM,> 30 µM,> 30 µM,2.71 µM,> 30 µM,> 30 µM,
O=c1[nH]c(=O)n([C@H]2C[C@H](O)[C@@H](CO)O2)cc1F [FLOXURIDINE],,> 30 µM,> 30 µM,> 30 µM,> 30 µM,> 30 µM,,
COc1ccc2c(c1)N(C[C@H](C)CN(C)C)c1ccccc1S2 [LEVOMEPROMAZINE],> 30 µM,0.019 µM,> 30 µM,> 30 µM,2.84 µM,> 30 µM,> 30 µM,
